According to US9353084B2, “2-amino 3,5,5-trifluoro-3,4,5,6-tetrahydropyridines as BACE1 inhibitors for treatment of Alzheimer's disease” (H. Lundbeck A/S, priority 2014, dated 2016):
Counter-ions that a name gives are not always drawn.

Target: human BACE1 (Homo sapiens (Human), UniProt P56817)
Experiment: BACE1 binding assay (SPA-based, radioligand displacement)
Settings: pH 4.5, Ki calculated from IC50
Procedure: The binding assay was performed as SPA-based assay using a biotinylated form of human BACE1 recombinantly expressed and subsequently purified from Freestyle HEK293 cells. The binding assay was run in a 50 mM sodium acetate buffer, pH 4.5 containing 50 mM NaCl and 0.03% Tween-20 in white clear bottom 384 plates (Corning #3653). 10 nM (final concentration) radioligand ([^3H]—N-((1S,2R)-1-benzyl-3-cyclopropylamino-2-hydroxy-propyl)-5-(methanesulfonyl-methyl-amino)-N—((R)-1-phenyl-ethyl)-isophthalamide) (TRQ11569 purchased from GE Healthcare) was mixed with test compound at a given concentration, 6 nM (final concentration) human BACE1 and 25 μg Streptavidin coated PVT core SPA beads (RPNQ0007, GE Healthcare Life Sciences) in a total volume of 40 μl. Several concentrations of each test compound were tested in the assay for IC50 determination. The plates were incubated for one hour at room temperature and counted in a Wallac Trilux counter. Total and non-specific binding were determined using buffer and 1 μM (final concentration) of the high affinity BACE1 reference inhibitor (S)-6-[3-chloro-5-(5-prop-1-ynyl-pyridin-3-yl)-thiophen-2-yl]-2-imino-3,6-dimethyl-tetrahydro-pyrimidin-4-one, respectively. For each test compound, a IC50 value (the concentration mediating 50% inhibition of the specific binding of the radioligand) was determined from concentration-response curve and used to calculate the Ki from the equation Ki=IC50/(1+L/Kd), where L and Kd are the final concentration of the radioligand used in the assay and the dissociation constant of the radioligand, respectively. The Kd of the radioligand was determined from saturation binding experiments.

Sequence of human BACE1 (P56817 46-501): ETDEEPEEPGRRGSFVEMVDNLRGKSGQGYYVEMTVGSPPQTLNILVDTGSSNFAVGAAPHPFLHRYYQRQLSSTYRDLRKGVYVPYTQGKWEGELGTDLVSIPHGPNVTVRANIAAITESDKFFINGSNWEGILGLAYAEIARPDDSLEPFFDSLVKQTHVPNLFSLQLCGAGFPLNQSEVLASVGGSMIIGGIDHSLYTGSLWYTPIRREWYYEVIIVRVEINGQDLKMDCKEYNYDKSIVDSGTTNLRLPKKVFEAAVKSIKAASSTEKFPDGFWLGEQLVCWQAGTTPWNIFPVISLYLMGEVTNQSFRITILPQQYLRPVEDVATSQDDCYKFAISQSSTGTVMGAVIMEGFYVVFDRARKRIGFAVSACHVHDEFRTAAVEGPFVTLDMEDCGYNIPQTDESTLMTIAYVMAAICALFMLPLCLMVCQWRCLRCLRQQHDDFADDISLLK

Ki | Compound
680 nM | Cc1nc(C(=O)Nc2ccc(F)c([C@@]3(C)N=C(N)[C@](C)(F)CC3(F)F)c2)no1 [Compound 35, N-(3-((2R,5R)-6-amino-3,3,5-trifluoro-2,5-dimethyl-2,3,4,5-tetrahydropyridin-2-yl)-4-fluorophenyl)-5-methyl-1,2,4-oxadiazole-3-carboxamide]
390 nM | C[C@@]1(F)CC(F)(F)[C@@](C)(c2cc(NC(=O)c3nccs3)ccc2F)N=C1N [Compound 36, N-(3-((2R,5R)-6-amino-3,3,5-trifluoro-2,5-dimethyl-2,3,4,5-tetrahydropyridin-2-yl)-4-fluorophenyl)thiazole-2-carboxamide]
420 nM | Cn1cc(Br)nc1C(=O)Nc1ccc(F)c([C@@]2(C)N=C(N)[C@](C)(F)CC2(F)F)c1 [Compound 37, N-(3-((2R,5R)-6-amino-3,3,5-trifluoro-2,5-dimethyl-2,3,4,5-tetrahydropyridin-2-yl)-4-fluorophenyl)-4-bromo-1-methyl-1H-imidazole-2-carboxamide]
1000 nM | Cc1cn(C)c(C(=O)Nc2ccc(F)c([C@@]3(C)N=C(N)[C@](C)(F)CC3(F)F)c2)n1 [Compound 38, N-(3-((2R,5R)-6-amino-3,3,5-trifluoro-2,5-dimethyl-2,3,4,5-tetrahydropyridin-2-yl)-4-fluorophenyl)-1,4-dimethyl-1H-imidazole-2-carboxamide]
4800 nM | Cn1ccc(C(=O)Nc2ccc(F)c([C@@]3(C)N=C(N)[C@](C)(F)CC3(F)F)c2)n1 [Compound 39, N-(3-((2R,5R)-6-amino-3,3,5-trifluoro-2,5-dimethyl-2,3,4,5-tetrahydropyridin-2-yl)-4-fluorophenyl)-1-methyl-1H-pyrazole-3-carboxamide]
8200 nM | Cc1cc(C(=O)Nc2ccc(F)c([C@@]3(C)N=C(N)[C@](C)(F)CC3(F)F)c2)on1 [Compound 40, N-(3-((2R,5R)-6-amino-3,3,5-trifluoro-2,5-dimethyl-2,3,4,5-tetrahydropyridin-2-yl)-4-fluorophenyl)-3-methylisoxazole-5-carboxamide]
520 nM | Cc1ccc(C(=O)Nc2ccc(F)c([C@@]3(C)N=C(N)[C@](C)(F)CC3(F)F)c2)o1 [Compound 41, N-(3-((2R,5R)-6-amino-3,3,5-trifluoro-2,5-dimethyl-2,3,4,5-tetrahydropyridin-2-yl)-4-fluorophenyl)-5-methylfuran-2-carboxamide]
1500 nM | Cc1ncc(C(=O)Nc2ccc(F)c([C@@]3(C)N=C(N)[C@](C)(F)CC3(F)F)c2)o1 [Compound 42, N-(3-((2R,5R)-6-amino-3,3,5-trifluoro-2,5-dimethyl-2,3,4,5-tetrahydropyridin-2-yl)-4-fluorophenyl)-2-methyloxazole-5-carboxamide trifluoroacetic acid salt]
91 nM | [2H]C([2H])([2H])Oc1ccc(C(=O)Nc2ccc(F)c([C@@]3(C)N=C(N)[C@](C)(F)CC3(F)F)c2)nc1 [Compound 43, N-(3-((2R,5R)-6-amino-3,3,5-trifluoro-2,5-dimethyl-2,3,4,5-tetrahydropyridin-2-yl)-4-fluorophenyl)-5-(methoxy-d3)picolinamide]
740 nM | C[C@@]1(F)CC(F)(F)[C@@](C)(c2cc(NC(=O)c3ccc(Cl)cc3)ccc2F)N=C1N [Compound 44, N-(3-((2R,5R)-6-amino-3,3,5-trifluoro-2,5-dimethyl-2,3,4,5-tetrahydropyridin-2-yl)-4-fluorophenyl)-4-chlorobenzamide]
14 nM | C[C@]1(F)CC(F)(F)[C@@](C)(c2cc(NC(=O)c3ccc(OC(F)F)cn3)ccc2F)N=C1N [Compound 45, N-(3-((2R,5S)-6-amino-3,3,5-trifluoro-2,5-dimethyl-2,3,4,5-tetrahydropyridin-2-yl)-4-fluorophenyl)-5-(difluoromethoxy)picolinamide]
14 nM | COc1cnc(C(=O)Nc2ccc(F)c([C@@]3(C)N=C(N)[C@@](C)(F)CC3(F)F)c2)c(F)c1 [Compound 46, N-(3-((2R,5S)-6-amino-3,3,5-trifluoro-2,5-dimethyl-2,3,4,5-tetrahydropyridin-2-yl)-4-fluorophenyl)-3-fluoro-5-methoxypicolinamide]
